# Tests used:
# Experiment in all cases: relative viability (nuclei count vs DMSO), 5 days (fraction); higher = more cells survive
# Sunitinib + Pictilisib = compound: CCN(CC)CCNC(=O)c1c(C)[nH]c(/C=C2\C(=O)Nc3ccc(F)cc32)c1C [Sunitinib] + CS(=O)(=O)N1CCN(Cc2cc3nc(-c4cccc5[nH]ncc45)nc(N4CCOCC4)c3s2)CC1 [Pictilisib] (partner 1 µM)
# How it was run: (§1)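 Cells from lung cancer lines were seeded into 1536-well plates and, one day later, dosed by pin tool. Treatments were either a single drug or a fixed dose of an anchor drug with five library-drug doses (not always all listed) in √10 steps. After 5 days, nuclei were stained in a one-step fixation (final 0.05% Triton X-100, 1% formaldehyde, 1 ug/ml Hoechst) and counted on 4× images, and relative viability is the treated-to-vehicle nuclei ratio, as the median of duplicate plates.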
# Sunitinib + Navitoclax = compound: CCN(CC)CCNC(=O)c1c(C)[nH]c(/C=C2\C(=O)Nc3ccc(F)cc32)c1C [Sunitinib] + CC1(C)CCC(c2ccc(Cl)cc2)=C(CN2CCN(c3ccc(C(=O)NS(=O)(=O)c4ccc(N[C@H](CCN5CCOCC5)CSc5ccccc5)c(S(=O)(=O)C(F)(F)F)c4)cc3)CC2)C1 [Navitoclax] (partner 0.5 µM)
# How it was run: as §1
# Sunitinib + Bortezomib = compound: CCN(CC)CCNC(=O)c1c(C)[nH]c(/C=C2\C(=O)Nc3ccc(F)cc32)c1C [Sunitinib] + CC(C)C[C@H](NC(=O)[C@H](Cc1ccccc1)NC(=O)c1cnccn1)B(O)O [Bortezomib] (partner 0.002 µM)
# How it was run: as §1
# Sunitinib + Linsitinib = compound: CCN(CC)CCNC(=O)c1c(C)[nH]c(/C=C2\C(=O)Nc3ccc(F)cc32)c1C [Sunitinib] + C[C@]1(O)C[C@@H](c2nc(-c3ccc4ccc(-c5ccccc5)nc4c3)c3c(N)nccn32)C1 [Linsitinib] (partner 1 µM)
# How it was run: as §1
# Sunitinib + Olaparib = compound: CCN(CC)CCNC(=O)c1c(C)[nH]c(/C=C2\C(=O)Nc3ccc(F)cc32)c1C [Sunitinib] + O=C(c1cc(Cc2n[nH]c(=O)c3ccccc23)ccc1F)N1CCN(C(=O)C2CC2)CC1 [Olaparib] (partner 8 µM)
# How it was run: as §1
# Sunitinib + Crizotinib = compound: CCN(CC)CCNC(=O)c1c(C)[nH]c(/C=C2\C(=O)Nc3ccc(F)cc32)c1C [Sunitinib] + C[C@@H](Oc1cc(-c2cnn(C3CCNCC3)c2)cnc1N)c1c(Cl)ccc(F)c1Cl [Crizotinib] (partner 1 µM)
# How it was run: as §1
# Sunitinib + Foretinib = compound: CCN(CC)CCNC(=O)c1c(C)[nH]c(/C=C2\C(=O)Nc3ccc(F)cc32)c1C [Sunitinib] + COc1cc2c(Oc3ccc(NC(=O)C4(C(=O)Nc5ccc(F)cc5)CC4)cc3F)ccnc2cc1OCCCN1CCOCC1 [Foretinib] (partner 0.25 µM)
# How it was run: as §1
# Sunitinib + Alpelisib = compound: CCN(CC)CCNC(=O)c1c(C)[nH]c(/C=C2\C(=O)Nc3ccc(F)cc32)c1C [Sunitinib] + Cc1nc(NC(=O)N2CCC[C@H]2C(N)=O)sc1-c1ccnc(C(C)(C)C(F)(F)F)c1 [Alpelisib] (partner 2 µM)
# How it was run: as §1
# Sunitinib + Lapatinib = compound: CCN(CC)CCNC(=O)c1c(C)[nH]c(/C=C2\C(=O)Nc3ccc(F)cc32)c1C [Sunitinib] + CS(=O)(=O)CCNCc1ccc(-c2ccc3ncnc(Nc4ccc(OCc5cccc(F)c5)c(Cl)c4)c3c2)o1 [Lapatinib] (partner 2 µM)
# How it was run: as §1
# Sunitinib = compound: CCN(CC)CCNC(=O)c1c(C)[nH]c(/C=C2\C(=O)Nc3ccc(F)cc32)c1C [Sunitinib]
# How it was run: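 Only plates meeting two conditions passed: control CV below 25% and at least one doubling. Lung cancer cell lines, kept overnight at 37 °C in 1536-well plates, were pinned with five library-drug doses (not always all listed) √10 apart on vehicle-anchored plates and grown 5 days without medium change. A one-step fix, permeabilisation and Hoechst stain preceded 4× imaging and MetaXpress nuclear counting. Viability equals treated-well nuclei divided by vehicle-well nuclei, as the median over plates.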
cell line,measurement,setting,value
Calu-6,relative viability,Sunitinib + Pictilisib; first compound 0.02 µM,0.901
same,relative viability,Sunitinib + Pictilisib; first compound 0.06325 µM,0.887
same,relative viability,Sunitinib + Pictilisib; first compound 0.2 µM,1.13
same,relative viability,Sunitinib + Pictilisib; first compound 0.6325 µM,1.09
same,relative viability,Sunitinib + Pictilisib; first compound 2 µM,0.93
same,relative viability,Sunitinib + Navitoclax; first compound 0.02 µM,0.896
same,relative viability,Sunitinib + Navitoclax; first compound 0.06325 µM,0.772
same,relative viability,Sunitinib + Navitoclax; first compound 0.2 µM,0.923
same,relative viability,Sunitinib + Navitoclax; first compound 0.6325 µM,0.972
same,relative viability,Sunitinib + Navitoclax; first compound 2 µM,0.914
same,relative viability,Sunitinib + Bortezomib; first compound 0.02 µM,0.979
same,relative viability,Sunitinib + Bortezomib; first compound 0.2 µM,1.08
same,relative viability,Sunitinib + Bortezomib; first compound 0.6325 µM,1.2
same,relative viability,Sunitinib + Bortezomib; first compound 2 µM,1.09
same,relative viability,Sunitinib + Linsitinib; first compound 0.02 µM,0.874
same,relative viability,Sunitinib + Linsitinib; first compound 0.06325 µM,1.08
same,relative viability,Sunitinib + Linsitinib; first compound 0.6325 µM,1.08
same,relative viability,Sunitinib + Linsitinib; first compound 2 µM,0.981
same,relative viability,Sunitinib + Olaparib; first compound 0.02 µM,0.575
same,relative viability,Sunitinib + Olaparib; first compound 0.06325 µM,0.57
same,relative viability,Sunitinib + Olaparib; first compound 0.2 µM,0.598
same,relative viability,Sunitinib + Olaparib; first compound 0.6325 µM,0.571
same,relative viability,Sunitinib + Olaparib; first compound 2 µM,0.614
same,relative viability,Sunitinib + Crizotinib; first compound 0.02 µM,0.711
same,relative viability,Sunitinib + Crizotinib; first compound 0.06325 µM,0.772
same,relative viability,Sunitinib + Crizotinib; first compound 0.2 µM,0.852
same,relative viability,Sunitinib + Crizotinib; first compound 0.6325 µM,0.932
same,relative viability,Sunitinib + Crizotinib; first compound 2 µM,0.79
same,relative viability,Sunitinib + Foretinib; first compound 0.02 µM,0.836
same,relative viability,Sunitinib + Foretinib; first compound 0.06325 µM,0.951
same,relative viability,Sunitinib + Foretinib; first compound 0.2 µM,0.913
same,relative viability,Sunitinib + Foretinib; first compound 0.6325 µM,0.963
same,relative viability,Sunitinib + Alpelisib; first compound 0.02 µM,0.904
same,relative viability,Sunitinib + Alpelisib; first compound 0.06325 µM,1.1
same,relative viability,Sunitinib + Alpelisib; first compound 0.2 µM,1.11
same,relative viability,Sunitinib + Alpelisib; first compound 0.6325 µM,1.16
same,relative viability,Sunitinib + Alpelisib; first compound 2 µM,0.898
same,relative viability,Sunitinib + Lapatinib; first compound 0.02 µM,1.02
same,relative viability,Sunitinib + Lapatinib; first compound 0.06325 µM,1.16
same,relative viability,Sunitinib + Lapatinib; first compound 0.2 µM,1.28
same,relative viability,Sunitinib + Lapatinib; first compound 0.6325 µM,1.18
same,relative viability,Sunitinib + Lapatinib; first compound 2 µM,1.19
same,relative viability,Sunitinib; 0.02 µM,0.954
same,relative viability,Sunitinib; 0.06325 µM,1.04
same,relative viability,Sunitinib; 0.2 µM,1.09
same,relative viability,Sunitinib; 0.6325 µM,1.06
same,relative viability,Sunitinib; 2 µM,1.07
EBC-1,relative viability,Sunitinib + Pictilisib; first compound 0.02 µM,0.41
same,relative viability,Sunitinib + Pictilisib; first compound 0.06325 µM,0.377
same,relative viability,Sunitinib + Pictilisib; first compound 0.2 µM,0.463
same,relative viability,Sunitinib + Pictilisib; first compound 0.6325 µM,0.411
same,relative viability,Sunitinib + Pictilisib; first compound 2 µM,0.46
same,relative viability,Sunitinib + Navitoclax; first compound 0.02 µM,0.467
same,relative viability,Sunitinib + Navitoclax; first compound 0.06325 µM,0.472
same,relative viability,Sunitinib + Navitoclax; first compound 0.2 µM,0.417
same,relative viability,Sunitinib + Navitoclax; first compound 0.6325 µM,0.557
same,relative viability,Sunitinib + Navitoclax; first compound 2 µM,0.626
same,relative viability,Sunitinib + Bortezomib; first compound 0.02 µM,0.475
same,relative viability,Sunitinib + Bortezomib; first compound 0.06325 µM,0.573
same,relative viability,Sunitinib + Bortezomib; first compound 0.2 µM,0.65
same,relative viability,Sunitinib + Bortezomib; first compound 0.6325 µM,0.532
same,relative viability,Sunitinib + Bortezomib; first compound 2 µM,0.534
same,relative viability,Sunitinib + Linsitinib; first compound 0.02 µM,0.9
same,relative viability,Sunitinib + Linsitinib; first compound 0.06325 µM,0.972
same,relative viability,Sunitinib + Linsitinib; first compound 0.2 µM,1.01
same,relative viability,Sunitinib + Linsitinib; first compound 0.6325 µM,0.993
same,relative viability,Sunitinib + Linsitinib; first compound 2 µM,0.957
same,relative viability,Sunitinib + Olaparib; first compound 0.02 µM,0.758
same,relative viability,Sunitinib + Olaparib; first compound 0.06325 µM,0.689
same,relative viability,Sunitinib + Olaparib; first compound 0.2 µM,0.727
same,relative viability,Sunitinib + Olaparib; first compound 0.6325 µM,0.726
same,relative viability,Sunitinib + Olaparib; first compound 2 µM,0.739
same,relative viability,Sunitinib + Crizotinib; first compound 0.02 µM,0.171
same,relative viability,Sunitinib + Crizotinib; first compound 0.06325 µM,0.178
same,relative viability,Sunitinib + Crizotinib; first compound 0.2 µM,0.216
same,relative viability,Sunitinib + Crizotinib; first compound 0.6325 µM,0.183
same,relative viability,Sunitinib + Crizotinib; first compound 2 µM,0.19
same,relative viability,Sunitinib + Foretinib; first compound 0.02 µM,0.101
same,relative viability,Sunitinib + Foretinib; first compound 0.06325 µM,0.112
same,relative viability,Sunitinib + Foretinib; first compound 0.2 µM,0.0979
same,relative viability,Sunitinib + Foretinib; first compound 0.6325 µM,0.112
same,relative viability,Sunitinib + Foretinib; first compound 2 µM,0.119
same,relative viability,Sunitinib + Alpelisib; first compound 0.02 µM,0.857
same,relative viability,Sunitinib + Alpelisib; first compound 0.06325 µM,0.971
same,relative viability,Sunitinib + Alpelisib; first compound 0.2 µM,0.871
same,relative viability,Sunitinib + Alpelisib; first compound 0.6325 µM,0.87
same,relative viability,Sunitinib + Alpelisib; first compound 2 µM,1
same,relative viability,Sunitinib + Lapatinib; first compound 0.02 µM,0.227
same,relative viability,Sunitinib + Lapatinib; first compound 0.06325 µM,0.198
same,relative viability,Sunitinib + Lapatinib; first compound 0.2 µM,0.224
same,relative viability,Sunitinib + Lapatinib; first compound 0.6325 µM,0.215
same,relative viability,Sunitinib + Lapatinib; first compound 2 µM,0.202
same,relative viability,Sunitinib; 0.02 µM,0.965
same,relative viability,Sunitinib; 0.2 µM,1.12
same,relative viability,Sunitinib; 0.6325 µM,1.09
same,relative viability,Sunitinib; 2 µM,1.01

# — the supplement of paper PMC10307832
